# According to patent publication US20120238553A1 (priority 2009, published 2012):
# Counter-ions that a name gives are not always drawn.
# Target: α7-subtype of nicotinic receptors (Rattus norvegicus, UniProt Q05941)
# Test: biochemical
# Type: binding
# Sequence of α7-subtype of nicotinic receptors (Q05941 23-502): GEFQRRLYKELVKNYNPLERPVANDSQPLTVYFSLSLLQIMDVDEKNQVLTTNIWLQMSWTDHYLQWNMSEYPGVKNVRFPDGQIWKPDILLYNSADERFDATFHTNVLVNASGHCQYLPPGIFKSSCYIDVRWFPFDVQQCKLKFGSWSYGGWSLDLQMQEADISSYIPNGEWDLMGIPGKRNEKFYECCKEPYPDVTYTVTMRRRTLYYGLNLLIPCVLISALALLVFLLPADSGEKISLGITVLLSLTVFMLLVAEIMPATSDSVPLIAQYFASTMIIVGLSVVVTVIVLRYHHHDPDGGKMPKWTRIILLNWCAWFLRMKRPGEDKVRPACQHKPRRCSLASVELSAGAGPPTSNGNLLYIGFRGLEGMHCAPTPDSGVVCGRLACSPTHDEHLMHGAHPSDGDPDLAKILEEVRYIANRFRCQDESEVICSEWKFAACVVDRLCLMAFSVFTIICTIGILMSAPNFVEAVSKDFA
smiles,measurement,value
"c1cc2c(c(-c3nnc(N4CCN5CCC4CC5)o3)c1)OCO2 [Compound 1, 4-(5-Benzo[1,3]dioxol-4-yl-[1,3,4]oxadiazol-2-yl)-1,4-diaza-bicyclo[3.2.2]nonane fumaric acid salt]",IC50,22 nM
